Molecules are shown by their SMILES.

For 74 compounds, cytotoxicity results are on record in ChEMBL document CHEMBL3507680, “University of Dundee, Gates Library screen for HepG2 cell viability”.

This data set can be described thus: Human HepG2 cell viability assay in 384 well format. The format is toxicity, cell-based. Set-up: dose 125 nL, time 70.5 hour; cytotoxicity at 70.5 h: concentration not given beside the values. Particulars: HepG2 cells, read-out: Inhibition.
For the compound `CN(Cc1ccccn1)C(=O)CNC(=O)N1CCc2ccccc2C1`, the cytotoxicity at 70.5 h was -10.7%.

Consider `COc1ccc(F)cc1CN(CC(N)=O)C(C)C`, for which the cytotoxicity at 70.5 h is -3.68%.

Regarding `CC(C(N)=O)N1CCN(c2ncc(Br)cn2)CC1` (centres undefined), the cytotoxicity at 70.5 h was 0.267%.

`Cc1noc(C(C)C)c1C(=O)N1CCC(n2cccn2)CC1`: the cytotoxicity at 70.5 h came to 13.2%.

As to `COc1ccc(Cl)cc1CN(CC(N)=O)C(C)C`, the cytotoxicity at 70.5 h was -4.98%.

Regarding `Cc1ccc(C)c(CN(CC(N)=O)C(C)C)c1`, the cytotoxicity at 70.5 h was -1.28%.

As to `Cc1noc(C)c1S(=O)(=O)N1CCC(n2cccn2)CC1`, the cytotoxicity at 70.5 h is -5.3%.

As for `CCN(Cc1cccnc1)C1CCN(c2ccccc2)C1=O` (centres undefined), the cytotoxicity at 70.5 h is -3.8%.

In the case of `Cc1c(NC(=O)N(C)CCO)cccc1OC1CCCC1`, the cytotoxicity at 70.5 h was -7.3%.

As to `Cc1nn(C)c(C)c1C1CCCN1C(=O)c1cc(C(N)=O)cs1` (centres undefined), the cytotoxicity at 70.5 h is -6.04%.

Regarding `CC(C)c1ccccc1OCCNC(=O)N1CCC(CC(N)=O)CC1`, the cytotoxicity at 70.5 h was -4.04%.

In the case of `COCCC(=O)N(CCC#N)c1ccc(C)c(C)c1`, the cytotoxicity at 70.5 h is -3.89%.

In the case of `N#CCCN(C(=O)CCc1cscn1)c1ccc2c(c1)OCCO2`, the cytotoxicity at 70.5 h amounted to 16.5%.

For the compound `CCOc1cc(F)ccc1NC1CCN(CC(F)(F)F)C1=O` (centres undefined), the cytotoxicity at 70.5 h is -0.756%.

With `Cc1cc(C)c(C(=O)N(C)CCN(C)C(=O)c2[nH]c(C)cc2C)[nH]1`, the cytotoxicity at 70.5 h was -6.06%.

As to `CN1CCC(Nc2cc(Cl)ccc2OCC(F)(F)F)C1=O` (centres undefined), the cytotoxicity at 70.5 h was -1.29%.

On to `Cc1sc(C(=O)N(C)S(C)(=O)=O)cc1-c1ccc(F)cc1`, for which the cytotoxicity at 70.5 h is -2.76%.

Regarding `Cc1sc(C(=O)NS(C)(=O)=O)cc1-c1ccc(F)cc1`, the cytotoxicity at 70.5 h was -4.18%.

For `NC(=O)c1ccc(NC2CCOC3(CCCC3)C2)nn1` (centres undefined), the cytotoxicity at 70.5 h came to 17.2%.

Take `Cc1c(NC(=O)N(C)CCn2cnnc2)cccc1OC1CCCC1`: the cytotoxicity at 70.5 h is -4.56%.

In the case of `Cc1cnc(N2CCN(C(C)C(N)=O)CC2)nc1` (centres undefined), the cytotoxicity at 70.5 h is -1.41%.

In the case of `CCCOc1cc(CNC(=O)Nc2ccccn2)ccn1`, the cytotoxicity at 70.5 h was found to be 45.7%.

With `CCNC(=O)CN1CCc2c(Br)ccc(F)c2C1`, the cytotoxicity at 70.5 h was 5.62%.

For the compound `O=C(NCCN1CCOCC1)NCc1cccnc1-n1cccn1`, the cytotoxicity at 70.5 h is -2.89%.

Turning to `O=C(CCC(=O)N1CCOCC1)NCc1cccnc1-n1cccn1`, the cytotoxicity at 70.5 h is 1.46%.

For `Cc1nnc(NCC(c2cccs2)N2CCCC2)c(C#N)c1C` (centres undefined), the cytotoxicity at 70.5 h is -2.36%.

As to `CC(C)N(CC(N)=O)CC(=O)NCCc1c(F)cccc1F`, the cytotoxicity at 70.5 h was -1.87%.

With `Cc1ccccc1C1CCN(C(=O)CCNC(=O)C(C)(C)C)C1` (centres undefined), the cytotoxicity at 70.5 h is -1.33%.

For the compound `CC(Cc1c(F)cccc1F)NC(=O)CSCC(N)=O` (centres undefined), the cytotoxicity at 70.5 h stood at 12.1%.

With `Cc1ccc(NS(=O)(=O)c2cccc(C#N)c2)c(CN(C)C)c1`, the cytotoxicity at 70.5 h came out at 0.936%.

`Cc1ccccc1CNC(Cn1cncn1)c1ccccc1` (centres undefined): the cytotoxicity at 70.5 h is 1.75%.

`CCSCCC(C)N(C)C(=O)c1cc(C)on1` (centres undefined): the cytotoxicity at 70.5 h was -3.26%.

On to `Cc1cc(C(=O)NC(CC(C)C)C(=O)Nc2cc[nH]n2)c(C)o1` (centres undefined), for which the cytotoxicity at 70.5 h amounted to 0.859%.

Take `CC(C)CC(NC(=O)c1cnn(C)c1)C(=O)Nc1cc[nH]n1` (centres undefined): the cytotoxicity at 70.5 h was found to be 0.0249%.

`N#Cc1c(Cl)nsc1NCc1ccc(N2CCC(CO)CC2)cc1`: the cytotoxicity at 70.5 h was -0.689%.

On to `CC(C)(C)n1ncc2c(=O)[nH]c(N3CCC4(CCCCC4)C3)nc21`, for which the cytotoxicity at 70.5 h was -2.75%.

In the case of `Cc1nn(C)cc1C(=O)NC(CC(C)C)C(=O)Nc1cc[nH]n1` (centres undefined), the cytotoxicity at 70.5 h is 12.6%.

Consider `COCCOCCC(=O)N1CCC(c2ccccc2C)C1` (centres undefined), for which the cytotoxicity at 70.5 h was -4.21%.

Take `CCSCCC(C)N(C)C(=O)c1cc(C)no1` (centres undefined): the cytotoxicity at 70.5 h is -2.61%.

Turning to `Cc1ccc(NCc2ccc(C#N)cc2)c(CN(C)C)c1`, the cytotoxicity at 70.5 h turned out to be 15.8%.

Turning to `Cc1ccc(S(=O)(=O)NCCNC(=O)c2cncnc2C)cc1`, the cytotoxicity at 70.5 h was -2.92%.

Turning to `Fc1cc(CN2CCOC3(CCOCC3)C2)ccc1OC(F)F`, the cytotoxicity at 70.5 h is -3.49%.

Regarding `COc1cc(C(C)NCc2ncccc2C)ccc1SC(F)F` (centres undefined), the cytotoxicity at 70.5 h was 52.4%.

On to `CN(C)C1Cc2ccccc2N(S(=O)(=O)c2ccccc2C#N)C1` (centres undefined), for which the cytotoxicity at 70.5 h worked out at 34.1%.

`COc1cc(OC)cc(N2CCC(NCc3occc3C)C2=O)c1` (centres undefined): the cytotoxicity at 70.5 h came out at 31%.

Take `COc1cc(OC)cc(N2CCC(NCc3ccsc3)C2=O)c1` (centres undefined): the cytotoxicity at 70.5 h was determined as 33.1%.

As to `NC(=O)CCN(C(=O)CSc1ccc(F)cc1)c1ccc(F)cc1`, the cytotoxicity at 70.5 h was 30.2%.

With `COc1ccc(N(CCC(N)=O)C(=O)CSc2ccc(Cl)cc2)cc1`, the cytotoxicity at 70.5 h was -0.942%.

With `O=C(Cn1ccc(=O)[nH]c1=O)Nc1ccccc1F`, the cytotoxicity at 70.5 h was -4.99%.

As to `O=C1CN(C(=O)c2cc(Cl)ccc2F)c2ccccc2N1`, the cytotoxicity at 70.5 h is 37.1%.

On to `CC(C)Oc1ccc(CNC(=O)C2CCS(=O)(=O)C2)cn1` (centres undefined), for which the cytotoxicity at 70.5 h turned out to be 26.3%.

As for `COc1ccc(N(CCC(N)=O)C(=O)CSc2ccc(F)c(F)c2)cc1`, the cytotoxicity at 70.5 h was -12.7%.

`COc1ccc(C(=O)NCC(=O)N(Cc2ccsc2)C2CC2)cc1OC`: the cytotoxicity at 70.5 h amounted to 30.2%.

`COc1ccc(CC(=O)N2CCC(c3nnc4n3CCC4)CC2)cc1F`: the cytotoxicity at 70.5 h was -5.72%.

On to `Cc1cc(C)c(CNC(=O)N2CCC(N3CCCC3)CC2)c(=O)[nH]1`, for which the cytotoxicity at 70.5 h is -7.61%.

As to `Cc1ccc(CC(=O)N2CCC(c3nnc4n3CCC4)CC2)cc1`, the cytotoxicity at 70.5 h is -8.21%.

As to `Cc1cc(C)c(CNC(=O)N2CCC(N3CCNC3=O)CC2)c(=O)[nH]1`, the cytotoxicity at 70.5 h was -10.5%.

With `CC(=O)N1CCN(C(=O)NCc2ccccc2Cn2ccnc2)CC1`, the cytotoxicity at 70.5 h was -14.1%.

For `O=C(c1cnc(NCCC2CCCO2)c(Cl)c1)N1CCCCC1` (centres undefined), the cytotoxicity at 70.5 h is -10%.

Turning to `CCn1cnnc1C1CCN(C(=O)Cc2ccc(OC)c(F)c2)CC1`, the cytotoxicity at 70.5 h is -7.22%.

As for `O=C(NCc1ccccc1Cn1ccnc1)N1CCOCC1`, the cytotoxicity at 70.5 h was -9.82%.

With `COc1ccccc1S(=O)(=O)N1CC(N(C)C)Cc2ccccc21` (centres undefined), the cytotoxicity at 70.5 h was determined as 30.7%.

With `COc1cc(CCNC(=O)NCCC2CCCO2)ccc1C` (centres undefined), the cytotoxicity at 70.5 h was -9.73%.

As to `CC(Oc1ccc(OCc2ncc(C(C)C)o2)cc1)C(N)=O` (centres undefined), the cytotoxicity at 70.5 h is -8.33%.

For the compound `CCc1nsc(N2CCC3(CC2)OCCO3)n1`, the cytotoxicity at 70.5 h is -8.49%.

`CC(N1CCN(C(=O)NCc2cccc(C#N)c2)CC1)C(F)(F)F` (centres undefined): the cytotoxicity at 70.5 h is -0.642%.

Regarding `COCc1nc(C)cc(Nc2ccc3c(c2)CC(=O)N3)n1`, the cytotoxicity at 70.5 h was -7.41%.

With `CCc1cnc(CN2CCCC(c3cc(C)[nH]n3)C2)o1` (centres undefined), the cytotoxicity at 70.5 h is -8.59%.

For the compound `O=C(NCCc1ccn(-c2ccc(F)cc2)n1)C1CCCO1` (centres undefined), the cytotoxicity at 70.5 h was -5.68%.

Turning to `CN1CC(C(=O)NCCc2ccn(-c3ccc(F)cc3)n2)CC1=O` (centres undefined), the cytotoxicity at 70.5 h is -9.34%.

With `c1cc(CCN2CCCC2CN2CCCC2)ccn1` (centres undefined), the cytotoxicity at 70.5 h worked out at 30%.

`CSCC1CCCN1CCc1ccncc1` (centres undefined): the cytotoxicity at 70.5 h stood at 27.5%.

With `Cc1ncc2c(n1)CN(CC(=O)N1CCc3sccc3C1)CC2`, the cytotoxicity at 70.5 h was -1.15%.

With `CCc1ncc2c(n1)CN(CC(=O)N1CCc3sccc3C1)CC2`, the cytotoxicity at 70.5 h was -9%.
